# Reference: patent US20050171358A1 (priority 2002, published 2005)
# Legend:
# [1] = system: Phytophthora infestans; assay type: in vivo; conditions: 125 ppm, 200 L/10 a spray on tomato (5 leaf stage), inoculated next day; diseased area rates of third to fifth true leaves after 3 days in green house, graded by Table 5
# [2] = system: Pseudoperonospora cubensis; experiment: Effect test for cucumber downy mildew (Evaluation Example 4); assay type: in vivo; conditions: 125 ppm, 200 L/10 a spray on cucumber (3 leaf stage), inoculated next day; diseased area rates of first and second true leaves after 3 days in green house, graded by Table 5
# Procedure: The active ingredient compound was diluted with water containing 0.01% Tween 20 to have a concentration of 125 ppm. […] Next day, a zoosporangium suspension of Pseudoperonospora cubensis which was the causative fungus of cucumber downy mildew was sprayed to inoculate.
# [3] = system: Pyricularia oryzae; assay type: in vivo; conditions: 200 ppm spray on rice (Koshihikari, 3 leaf stage), inoculated next day; lesion numbers on third leaves after 7 days in green house, graded by Table 5
# [4] = system: Colletotrichum lagenarium; conditions: 200 ppm spray on cucumber (3 leaf stage), inoculated next day; lesion numbers on first and second leaves after 7 days in green house, graded by Table 5
smiles,measurement,setting,value
"O=C(COc1ccccc1)NCc1cc(CCl)no1 [I-65, N-[(3-chloromethyl-5-isoxazolyl)methyl]phenoxyacetamide]",Evaluation (effect for tomato late blight),[1],4 (1˜5)
same,Evaluation (effect for cucumber downy mildew),[2],2 (11˜20)
"O=C(NCc1cc(CCl)no1)NC1CCCCC1 [II-105, 3-(3-chloromethyl-5-isoxazolyl)methyl-1-cyclohexylurea]",Evaluation (effect for rice blast),[3],2 (11˜20)
same,Evaluation (effect for tomato late blight),[1],5 (0)
same,Evaluation (effect for cucumber downy mildew),[2],4 (1˜5)
"O=C(NCc1cc(CCl)no1)NC1CCCC1 [II-107, 3-(3-chloromethyl-5-isoxazolyl)methyl-1-cyclopentylurea]",Evaluation (effect for tomato late blight),[1],4 (1˜5)
same,Evaluation (effect for cucumber downy mildew),[2],2 (11˜20)
"O=C(NCc1cc(CBr)no1)NC1CCCCC1 [II-111, 3-(3-bromomethyl-5-isoxazolyl)methyl-1-cyclohexylurea]",Evaluation (effect for tomato late blight),[1],5 (0)
same,Evaluation (effect for cucumber downy mildew),[2],3 (6˜10)
"O=C(NCc1cc(CI)no1)NC1CCCCC1 [II-115, 3-(3-iodomethyl-5-isoxazolyl)methyl-1-cyclohexylurea]",Evaluation (effect for cucumber anthracnose),[4],2 (11˜20)
same,Evaluation (effect for rice blast),[3],3 (6˜10)
same,Evaluation (effect for tomato late blight),[1],3 (6˜10)
same,Evaluation (effect for cucumber downy mildew),[2],1 (21˜41)
"Cc1ccc(C(=O)NCc2cc(CCl)no2)cc1 [III-2, N-[(3-chloromethyl-5-isoxazolyl)methyl]-4-methylbenzamide]",Evaluation (effect for cucumber anthracnose),[4],4 (1˜5)
same,Evaluation (effect for rice blast),[3],4 (1˜5)
same,Evaluation (effect for tomato late blight),[1],5 (0)
same,Evaluation (effect for cucumber downy mildew),[2],5 (0)
"COc1ccc(C(=O)NCc2cc(CCl)no2)cc1 [III-3, N-[(3-chloromethyl-5-isoxazolyl)methyl]-4-methoxy benzamide]",Evaluation (effect for tomato late blight),[1],2 (11˜20)
same,Evaluation (effect for cucumber downy mildew),[2],4 (1˜5)
"Cc1ccc(-c2cc(CNC(=O)N3CCOCC3)on2)cc1 [III-204, N-{[3-(4-tolyl)-5-isoxazolyl]methyl}-4-morpholinecarboxamide]",Evaluation (effect for cucumber anthracnose),[4],2 (11˜20)
same,Evaluation (effect for rice blast),[3],2 (11˜20)
same,Evaluation (effect for cucumber downy mildew),[2],4 (1˜5)
"Cc1ccc(-c2cc(CNC(=O)C3CCCCC3)on2)cc1 [III-222, N-{[3-(4-tolyl)-5-isoxazolyl]methyl}cyclohexanecarboxamide]",Evaluation (effect for cucumber anthracnose),[4],2 (11˜20)
same,Evaluation (effect for rice blast),[3],3 (6˜10)
same,Evaluation (effect for cucumber downy mildew),[2],4 (1˜5)
"O=C(NCc1cc(CCl)no1)c1ccccc1 [III-226, N-[(3-chloromethyl-5-isoxazolyl)methyl]benzamide]",Evaluation (effect for tomato late blight),[1],3 (6˜10)
same,Evaluation (effect for cucumber downy mildew),[2],4 (1˜5)
"O=C(NCc1cc(CCl)no1)c1ccc(Cl)cc1 [III-254, N-[(3-chloromethyl-5-isoxazolyl)methyl]-4-chlorobenzamide]",Evaluation (effect for tomato late blight),[1],5 (0)
same,Evaluation (effect for cucumber downy mildew),[2],3 (6˜10)
"O=C(NCc1cc(CCl)no1)c1ccc2ccccc2c1 [III-267, N-[(3-chloromethyl-5-isoxazolyl)methyl]-2-naphthalenecarboxamide]",Evaluation (effect for tomato late blight),[1],5 (0)
same,Evaluation (effect for cucumber downy mildew),[2],5 (0)
"CCc1ccc(C(=O)NCc2cc(CCl)no2)cc1 [III-269, N-[(3-chloromethyl-5-isoxazolyl)methyl]-4-ethylbenzamide]",Evaluation (effect for tomato late blight),[1],5 (0)
same,Evaluation (effect for cucumber downy mildew),[2],5 (0)
"O=C(NCc1cc(CCl)no1)c1ccc(Cl)cc1Cl [III-271, N-[(3-chloromethyl-5-isoxazolyl)methyl]-2,4-dichlorobenzamide]",Evaluation (effect for tomato late blight),[1],1 (21˜41)
"O=C(NCc1cc(CCl)no1)c1ccc(Cl)c(Cl)c1 [III-272, N-[(3-chloromethyl-5-isoxazolyl)methyl]-3,4-dichlorobenzamide]",Evaluation (effect for tomato late blight),[1],5 (0)
same,Evaluation (effect for cucumber downy mildew),[2],3 (6˜10)
"Cc1ccccc1C(=O)NCc1cc(CCl)no1 [III-273, N-[(3-chloromethyl-5-isoxazolyl)methyl]-2-methylbenzamide]",Evaluation (effect for tomato late blight),[1],0 (41 or more)
"Cc1cccc(C(=O)NCc2cc(CCl)no2)c1 [III-274, N-[(3-chloromethyl-5-isoxazolyl)methyl]-3-methylbenzamide]",Evaluation (effect for tomato late blight),[1],4 (1˜5)
same,Evaluation (effect for cucumber downy mildew),[2],2 (11˜20)
"O=C(NCc1cc(CCl)no1)c1cccc(Cl)c1 [III-277, N-[(3-chloromethyl-5-isoxazolyl)methyl]-3-chlorobenzamide]",Evaluation (effect for tomato late blight),[1],4 (1˜5)
same,Evaluation (effect for cucumber downy mildew),[2],2 (11˜20)
"O=C(NCc1cc(CCl)no1)c1ccc([N+](=O)[O-])cc1 [III-278, N-[(3-chloromethyl-5-isoxazolyl)methyl]-4-nitrobenzamide]",Evaluation (effect for tomato late blight),[1],4 (1˜5)
same,Evaluation (effect for cucumber downy mildew),[2],2 (11˜20)
"CS(=O)(=O)c1ccc(C(=O)NCc2cc(CCl)no2)c(Cl)c1 [III-279, N-[(3-chloromethyl-5-isoxazolyl)methyl]-2-chloro-4-methanesulfonylbenzamide]",Evaluation (effect for tomato late blight),[1],5 (0)
same,Evaluation (effect for cucumber downy mildew),[2],3 (6˜10)
